From patent US20250320206A1, “STAT6 DEGRADERS” (Gilead Sciences, Inc., priority 2024, published 2025)

Key:
STAT6 = target: T1, STAT6 (Homo sapiens, UniProt P42226); experiment: Stat6 Degrader Assay (HiBiT based, HeLa LgBiT clone 4.14); type: cell-based; details: HeLa LgBiT clone 4.14 HiBiT-STAT6, 4-24 h incubation; values given for compounds with >80% Emax; geometric mean; read-out: STAT6 degradation DC50
T1 construct: These cells express endogenous STAT6; host or cells: HeLa LgBiT clone 4.14
T1 sequence (P42226 1-847): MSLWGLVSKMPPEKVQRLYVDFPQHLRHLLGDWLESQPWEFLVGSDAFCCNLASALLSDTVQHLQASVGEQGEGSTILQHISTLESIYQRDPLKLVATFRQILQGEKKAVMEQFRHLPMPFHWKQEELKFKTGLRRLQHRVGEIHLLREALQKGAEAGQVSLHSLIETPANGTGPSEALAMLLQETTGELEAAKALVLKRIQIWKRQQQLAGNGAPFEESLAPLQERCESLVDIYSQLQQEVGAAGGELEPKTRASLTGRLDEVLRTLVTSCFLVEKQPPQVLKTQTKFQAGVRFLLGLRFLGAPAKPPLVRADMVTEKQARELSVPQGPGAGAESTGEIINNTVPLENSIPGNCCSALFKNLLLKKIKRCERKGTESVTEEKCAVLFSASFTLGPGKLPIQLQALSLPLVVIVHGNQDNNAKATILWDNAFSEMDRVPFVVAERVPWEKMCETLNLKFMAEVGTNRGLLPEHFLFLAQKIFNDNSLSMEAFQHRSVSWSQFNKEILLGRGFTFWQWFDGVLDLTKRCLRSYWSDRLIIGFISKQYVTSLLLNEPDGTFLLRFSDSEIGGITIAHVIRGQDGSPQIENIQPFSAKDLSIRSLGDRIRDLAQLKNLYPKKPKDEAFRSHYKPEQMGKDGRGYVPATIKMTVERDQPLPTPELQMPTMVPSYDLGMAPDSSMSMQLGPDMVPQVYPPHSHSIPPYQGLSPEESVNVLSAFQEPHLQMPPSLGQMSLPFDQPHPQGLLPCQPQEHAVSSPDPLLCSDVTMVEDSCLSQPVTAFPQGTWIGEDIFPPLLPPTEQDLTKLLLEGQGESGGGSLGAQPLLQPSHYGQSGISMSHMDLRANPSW
How it was run: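 HeLa LgBiT clone 4.14 cells with CRISPR HiBiT-tagged endogenous STAT6, 5000 cells/well, compound dosed then incubated 4-24 h at 37° C, 5% CO2. Nano-Glo substrate added, 0.5 h, luminescence read as non-degraded STAT6. Terfenadine 50 μM (cell kill) defines 100% degradation.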

[1] = tested on: Eotaxin-3 release in human whole blood stimulated with IL-4; experiment: Human Whole Blood Eotaxin-3 Assay (IL-4 stimulated eotaxin-3 release); type: cell-based; details: IL-4 stimulation, 48 h, values given for compounds with >80% Emax, geometric mean
How it was run: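 Lithium-heparin human whole blood preincubated 2 h at 37° C with 4-fold serially diluted compounds (0.5% DMSO), then stimulated with recombinant human IL-4 ([…]) for 48 h. Eotaxin-3 (CCL26) in supernatant quantified by MSD immunoassay.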

## CNc1ccn(-c2ccnc3c2cc(CN2CCC(c4c(F)cc(C(=O)N5CCC(CN6CCN(Cc7ccc8c(c7)C7(CC7)C(=O)N8C7CCC(=O)NC7=O)C[C@@H]6C)CC5)cc4F)CC2)n3C)c(=O)c1 (stereo partly drawn) [Example 3u222, 3-(5′-(((S)-4-((1-(3,5-difluoro-4-(1-((1-methyl-4-(4-(methylamino)-2-oxopyridin-1 (2H)-yl)-1H-pyrrolo[2,3-b]pyridin-2-yl)methyl)piperidin-4-yl)benzoyl)piperidin-4-yl)methyl)-3-methylpiperazin-1-yl)methyl)-2′-oxospiro[cyclopropane-1,3′-indolin]-1′-yl)piperidine-2,6-dione]
STAT6
  DC50: 1.5 nM
[1]
  EC50: 1.1 nM

## CNc1ccn(-c2ccnc3c2cc([C@H](C)N2CC=C(c4c(C)cc(C(=O)N5CCC(CN6CCN(Cc7cc8c(cc7F)N([C@H]7CCC(=O)NC7=O)C(=O)C87CC7)C[C@@H]6C)CC5)cc4F)CC2)n3C)c(=O)c1 (single isomer, unassigned) [Example 3u194]
STAT6
  DC50: 1.7 nM
[1]
  EC50: 0.9 nM

## CNc1ccn(-c2ccnc3c2cc([C@H](C)N2CC=C(c4c(C)cc(C(=O)N(C)c5ccc(C6CCN(Cc7ccc8c(c7)n(C)c(=O)n8[C@@H]7CCC(=O)NC7=O)CC6)cc5)cc4F)CC2)n3C)c(=O)c1 (single isomer, unassigned) [Example 3u227]
STAT6
  DC50: 0.04 nM
[1]
  EC50: 0.3 nM

## CNc1ccn(-c2ccnc3c2cc(CN2CCC(c4c(F)cc(C(=O)N5CCC(CN6CCN(Cc7cc8c(cc7F)N([C@@H]7CCC(=O)NC7=O)C(=O)C87CC7)CC6)CC5)cc4F)CC2)n3C)c(=O)c1 (single isomer, unassigned) [Example 3u44]
STAT6
  DC50: 10.2 nM
[1]
  EC50: 10.1 nM

## CNc1cc(=O)n(-c2ccnc3c2cc([C@H](C)N2CC=C(c4c(C)cc(C(=O)N5CCC(CN6CCN(c7ccc8c(c7)C(C)(C)C(=O)N8[C@@H]7CCC(=O)NC7=O)CC6)CC5)cc4F)CC2)n3C)cc1F (single isomer, unassigned) [Example 3u286]
STAT6
  DC50: 12.5 nM
[1]
  EC50: 25.2 nM

## C[C@H]1CN(Cc2ccc3c(c2)C2(CCC2)C(=O)N3C2CCC(=O)NC2=O)CCN1CC1CCN(C(=O)c2cc(F)c(C3CCN(Cc4cc5c(-n6ccc7c(c6=O)CCN7)ccnc5n4C)CC3)c(F)c2)CC1 (stereo partly drawn) [Example 3u101, 3-(5′-(((S)-4-((1-(3,5-difluoro-4-(1-((1-methyl-4-(4-oxo-1,2,3,4-tetrahydro-5H-pyrrolo[3,2-c]pyridin-5-yl)-1H-pyrrolo[2,3-b]pyridin-2-yl)methyl)piperidin-4-yl)benzoyl)piperidin-4-yl)methyl)-3-methylpiperazin-1-yl)methyl)-2′-oxospiro[cyclobutane-1,3′-indolin]-1′-yl)piperidine-2,6-dione]
STAT6
  DC50: 2.3 nM
[1]
  EC50: 2.4 nM

## CNc1cc(=O)n(-c2ccnc3c2cc([C@H](C)N2CC=C(c4c(C)cc(C(=O)N5CCC(CN6CCN(c7ccc8c(c7)n(C)c(=O)n8[C@@H]7CCC(=O)NC7=O)CC6)CC5)cc4F)CC2)n3C)cc1F (single isomer, unassigned) [Example 3u297]
STAT6
  DC50: 2.2 nM
[1]
  EC50: 3.2 nM

## Cc1cc(C(=O)N2CCC(CN3CCN(Cc4ccc5c(c4)n(C)c(=O)n5C4CCC(=O)NC4=O)CC3)CC2)cc(F)c1C1=CCN([C@@H](C)c2cc3c(-n4cc(F)c5c(c4=O)CCN5)ccnc3n2C)CC1 (stereo partly drawn) [Example 3u85, 3-(5-((4-((1-(3-fluoro-4-(1-((S)-1-(4-(7-fluoro-4-oxo-1,2,3,4-tetrahydro-5H-pyrrolo[3,2-c]pyridin-5-yl)-1-methyl-1H-pyrrolo[2,3-b]pyridin-2-yl)ethyl)-1,2,3,6-tetrahydropyridin-4-yl)-5-methylbenzoyl)piperidin-4-yl)methyl)piperazin-1-yl)methyl)-3-methyl-2-oxo-2,3-dihydro-1H-benzo[d]imidazol-1-yl)piperidine-2,6-dione]
STAT6
  DC50: 3.1 nM
[1]
  EC50: 5.2 nM

## CNc1cc(=O)n(-c2ccnc3c2cc([C@H](C)N2CC=C(c4c(C)cc(C(=O)N5CCC(CN6CCN(Cc7ccc8c(c7)C(C)(C)C(=O)N8[C@@H]7CCC(=O)NC7=O)C[C@@H]6C)CC5)cc4F)CC2)n3C)cc1F (single isomer, unassigned) [Example 3u174]
STAT6
  DC50: 3.8 nM
[1]
  EC50: 11 nM

## CNc1ccn(-c2ccnc3c2cc(CN2CC=C(c4c(F)cc(C(=O)N5CCC(CN6CCN(Cc7ccc8c(c7)n(C)c(=O)n8C7CCC(=O)NC7=O)C[C@@H]6C)CC5)cc4F)CC2)n3C)c(=O)c1 (stereo partly drawn) [Example 3u1, 3-(5-(((S)-4-((1-(3,5-difluoro-4-(1-((1-methyl-4-(4-(methylamino)-2-oxopyridin-1 (2H)-yl)-1H-pyrrolo[2,3-b]pyridin-2-yl)methyl)-1,2,3,6-tetrahydropyridin-4-yl)benzoyl)piperidin-4-yl)methyl)-3-methylpiperazin-1-yl)methyl)-3-methyl-2-oxo-2,3-dihydro-1H-benzo[d]imidazol-1-yl)piperidine-2,6-dione]
STAT6
  DC50: 0.9 nM
[1]
  EC50: 1 nM

## Cc1cc(C(=O)N2CCC(CN3CCN(Cc4ccc5c(c4)n(C)c(=O)n5[C@@H]4CCC(=O)NC4=O)C[C@@H]3C)CC2)cc(F)c1C1=CCN(Cc2cc3c(-n4ccc5c(c4=O)CCN5)ccnc3n2C)CC1 (single isomer, unassigned) [Example 3u25]
STAT6
  DC50: 1.3 nM
[1]
  EC50: 1 nM

## CNc1cc(=O)n(-c2ccnc3c2cc([C@H](C)N2CC=C(c4c(C)cc(C(=O)N(C)c5ccc(N6CCC(Cc7ccc8c(c7)n(C)c(=O)n8[C@@H]7CCC(=O)NC7=O)CC6)nc5)cc4F)CC2)n3C)cc1F (single isomer, unassigned) [Example 3u243]
STAT6
  DC50: 0.3 nM
[1]
  EC50: 0.4 nM

## Cc1cc(C(=O)N2CCC(CN3CCN(Cc4ccc5c(c4)C4(CC4)C(=O)N5C4CCC(=O)NC4=O)C[C@@H]3C)CC2)cc(F)c1C1=CCN([C@@H](C)c2cc3c(-n4cc(F)c5c(c4=O)CCN5)ccnc3n2C)CC1 (stereo partly drawn) [Example 3u116, 3-(5′-(((S)-4-((1-(3-fluoro-4-(1-((S)-1-(4-(7-fluoro-4-oxo-1,2,3,4-tetrahydro-5H-pyrrolo[3,2-c]pyridin-5-yl)-1-methyl-1H-pyrrolo[2,3-b]pyridin-2-yl)ethyl)-1,2,3,6-tetrahydropyridin-4-yl)-5-methylbenzoyl)piperidin-4-yl)methyl)-3-methylpiperazin-1-yl)methyl)-2′-oxospiro[cyclopropane-1,3′-indolin]-1′-yl)piperidine-2,6-dione]
STAT6
  DC50: 8.7 nM
[1]
  EC50: 6 nM

## CNc1ccn(-c2ccnc3c2cc(CN2CC=C(c4c(C)cc(C(=O)N5CCC(CN6CCN(Cc7ccc8c(c7)n(C)c(=O)n8[C@@H]7CCC(=O)NC7=O)CC6)CC5)cc4F)CC2)n3C)c(=O)c1 (single isomer, unassigned) [Example 3u162]
STAT6
  DC50: 3.3 nM
[1]
  EC50: 2.3 nM

## CNc1cc(=O)n(-c2ccnc3c2cc(CN2CCC(c4c(F)cc(C(=O)N5CCC(CN6CCN(Cc7ccc8c(c7)C7(CC7)C(=O)N8[C@@H]7CCC(=O)NC7=O)C[C@@H]6C)CC5)cc4F)CC2)n3C)cc1F (single isomer, unassigned) [Example 3u221]
STAT6
  DC50: 1.9 nM
[1]
  EC50: 4.5 nM

## CNc1ccn(-c2ccnc3c2cc(CN2CCC(c4c(F)cc(C(=O)N5CCC(CN6CCN(Cc7ccc8c(c7)C7(CC7)C(=O)N8[C@H]7CCC(=O)NC7=O)C[C@@H]6C)CC5)cc4F)CC2)n3C)c(=O)c1 (single isomer, unassigned) [Example 3u223]
STAT6
  DC50: 0.9 nM
[1]
  EC50: 1.3 nM

## Cc1cc(C(=O)N2CCC(CN3CCN(Cc4ccc5c(c4)n(C4CC4)c(=O)n5C4CCC(=O)NC4=O)CC3)CC2)cc(F)c1C1=CCN([C@@H](C)c2cc3c(-n4ccc5c(c4=O)CCN5)ccnc3n2C)CC1 (stereo partly drawn) [Example 3u140, 3-(3-cyclopropyl-5-((4-((1-(3-fluoro-5-methyl-4-(1-((S)-1-(1-methyl-4-(4-oxo-1,2,3,4-tetrahydro-5H-pyrrolo[3,2-c]pyridin-5-yl)-1H-pyrrolo[2,3-b]pyridin-2-yl)ethyl)-1,2,3,6-tetrahydropyridin-4-yl)benzoyl)piperidin-4-yl)methyl)piperazin-1-yl)methyl)-2-oxo-2,3-dihydro-1H-benzo[d]imidazol-1-yl)piperidine-2,6-dione]
STAT6
  DC50: 1.4 nM
[1]
  EC50: 1 nM
